Experimental data reported in ChEMBL document CHEMBL1221387, “Prenylflavonoids from Glycyrrhiza uralensis and their protein tyrosine phosphatase-1B inhibitory activities” (Bioorg Med Chem Lett, 2010).
Calls of active or inactive are those of the source. The calls are words filed in the database; no cut-off is given here.

Target: T1, Tyrosine-protein phosphatase non-receptor type 1 (Homo sapiens) (UniProt P18031)
T1 sequence (whole entry): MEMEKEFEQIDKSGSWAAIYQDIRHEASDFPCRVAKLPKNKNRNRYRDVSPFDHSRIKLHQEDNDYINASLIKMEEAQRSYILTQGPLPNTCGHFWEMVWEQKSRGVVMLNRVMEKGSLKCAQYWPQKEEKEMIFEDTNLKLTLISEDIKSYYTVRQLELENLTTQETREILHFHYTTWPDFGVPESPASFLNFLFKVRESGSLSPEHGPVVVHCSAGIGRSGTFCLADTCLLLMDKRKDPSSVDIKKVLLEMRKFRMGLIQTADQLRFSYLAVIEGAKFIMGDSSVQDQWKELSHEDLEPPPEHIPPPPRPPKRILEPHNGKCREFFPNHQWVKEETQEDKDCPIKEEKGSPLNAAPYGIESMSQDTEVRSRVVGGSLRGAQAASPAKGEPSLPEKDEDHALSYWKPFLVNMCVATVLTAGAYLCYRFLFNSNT
Test: Mixed type inhibition of human recombinant PTP1B at 30 uM by Lineweaver-Burke plot analysis

COc1cc(O)cc2occ(-c3cc(O)c(O)c(CC=C(C)C)c3)c(=O)c12
inhibition: Active
